Measurements published in ChEMBL document CHEMBL1909046, “DrugMatrix in vitro pharmacology data”.

How the values were obtained:
[1] = molecular target: Aldo-keto reductase family 1 member B1 (Rattus norvegicus, UniProt P07943); experiment: biochemical; type: tissue-based, Lens of camera-type eye;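 note: inhibition of aldose reductase enzyme activity, measured with DL-glyceraldehyde as the substrate; in other assays of this panel Not Active means under 50% inhibition at 10 µM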
[2] = molecular target: T1, Vasoactive intestinal polypeptide receptor 1 (Homo sapiens, UniProt P32241); type: cell membranes, Membrane; conditions: ht-29; note: in other assays of this panel Not Active means under 50% inhibition at 10 µM
T1 sequence (P32241 whole entry): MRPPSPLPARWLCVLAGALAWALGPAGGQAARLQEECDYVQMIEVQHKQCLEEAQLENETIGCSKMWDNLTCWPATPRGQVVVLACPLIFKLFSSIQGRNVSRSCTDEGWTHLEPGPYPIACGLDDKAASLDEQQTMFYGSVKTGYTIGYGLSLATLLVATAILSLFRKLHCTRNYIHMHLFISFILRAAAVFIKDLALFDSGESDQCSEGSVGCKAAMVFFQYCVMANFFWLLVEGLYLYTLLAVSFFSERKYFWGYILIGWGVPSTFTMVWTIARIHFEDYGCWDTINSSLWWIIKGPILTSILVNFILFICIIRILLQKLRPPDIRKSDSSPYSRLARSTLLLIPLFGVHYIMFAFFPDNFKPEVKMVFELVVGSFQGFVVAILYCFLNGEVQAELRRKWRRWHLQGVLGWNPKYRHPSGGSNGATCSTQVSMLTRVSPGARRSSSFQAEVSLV

Carbonic anhydrase 2 = Carbonic anhydrase 2 (Homo sapiens, UniProt P00918); experiment: DRUGMATRIX: Carbonic Anhydrase II enzyme inhibition (substrate: 4-Nitrophenyl acetate (4-NPA)); type: tissue-based, Erythrocyte; conditions: erythrocyte; Not Active = under 50% inhibition at 10 µM
[3] = molecular target: Prostaglandin G/H synthase 1 (Homo sapiens, UniProt P23219); experiment: biochemical; type: tissue-based, Platelet; conditions: platelet;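 note: inhibition of COX-1 enzyme activity, with arachidonic acid supplied as substrate; in other assays of this panel Not Active means under 50% inhibition at 10 µM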
[4] = DRUGMATRIX: Imidazoline I2, Central radioligand binding (ligand: [3H] Idazoxan); type: cell membranes, Rattus norvegicus, Wistar, Cerebral cortex, Membrane; conditions: Not Active = under 50% inhibition at 10 µM
Insulin receptor = Insulin receptor (Rattus norvegicus, UniProt P15127); type: cell membranes, Wistar, Liver, Membrane; note: in other assays of this panel Not Active means under 50% inhibition at 10 µM
Neutrophil elastase = molecular target: T2, Neutrophil elastase (Homo sapiens, UniProt P08246); type: tissue-based
T2 sequence (P08246 whole entry): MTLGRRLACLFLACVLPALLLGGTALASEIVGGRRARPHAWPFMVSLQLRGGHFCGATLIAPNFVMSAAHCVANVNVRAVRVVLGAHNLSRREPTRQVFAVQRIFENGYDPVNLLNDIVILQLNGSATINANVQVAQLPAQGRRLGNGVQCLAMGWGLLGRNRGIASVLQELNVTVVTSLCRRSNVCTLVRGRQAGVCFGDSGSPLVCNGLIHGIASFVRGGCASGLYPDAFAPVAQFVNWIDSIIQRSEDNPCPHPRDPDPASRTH

Prostaglandin G/H synthase 1, sequence (P23219 whole entry): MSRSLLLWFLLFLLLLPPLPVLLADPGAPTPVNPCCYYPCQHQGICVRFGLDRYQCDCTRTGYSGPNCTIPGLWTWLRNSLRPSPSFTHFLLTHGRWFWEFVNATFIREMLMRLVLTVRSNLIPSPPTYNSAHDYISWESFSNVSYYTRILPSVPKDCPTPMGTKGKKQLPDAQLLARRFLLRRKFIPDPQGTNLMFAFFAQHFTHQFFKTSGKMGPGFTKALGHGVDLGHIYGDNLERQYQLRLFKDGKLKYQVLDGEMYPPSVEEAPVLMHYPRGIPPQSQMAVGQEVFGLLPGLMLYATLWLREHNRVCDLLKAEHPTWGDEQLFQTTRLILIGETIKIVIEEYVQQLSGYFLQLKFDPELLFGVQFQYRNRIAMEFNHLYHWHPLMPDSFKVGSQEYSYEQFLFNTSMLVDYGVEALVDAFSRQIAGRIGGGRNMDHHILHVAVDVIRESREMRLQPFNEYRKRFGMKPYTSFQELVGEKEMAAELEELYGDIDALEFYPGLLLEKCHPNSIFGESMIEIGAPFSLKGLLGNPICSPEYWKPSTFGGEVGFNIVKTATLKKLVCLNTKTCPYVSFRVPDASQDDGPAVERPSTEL
Insulin receptor, sequence (P15127 27-759 limits assumed): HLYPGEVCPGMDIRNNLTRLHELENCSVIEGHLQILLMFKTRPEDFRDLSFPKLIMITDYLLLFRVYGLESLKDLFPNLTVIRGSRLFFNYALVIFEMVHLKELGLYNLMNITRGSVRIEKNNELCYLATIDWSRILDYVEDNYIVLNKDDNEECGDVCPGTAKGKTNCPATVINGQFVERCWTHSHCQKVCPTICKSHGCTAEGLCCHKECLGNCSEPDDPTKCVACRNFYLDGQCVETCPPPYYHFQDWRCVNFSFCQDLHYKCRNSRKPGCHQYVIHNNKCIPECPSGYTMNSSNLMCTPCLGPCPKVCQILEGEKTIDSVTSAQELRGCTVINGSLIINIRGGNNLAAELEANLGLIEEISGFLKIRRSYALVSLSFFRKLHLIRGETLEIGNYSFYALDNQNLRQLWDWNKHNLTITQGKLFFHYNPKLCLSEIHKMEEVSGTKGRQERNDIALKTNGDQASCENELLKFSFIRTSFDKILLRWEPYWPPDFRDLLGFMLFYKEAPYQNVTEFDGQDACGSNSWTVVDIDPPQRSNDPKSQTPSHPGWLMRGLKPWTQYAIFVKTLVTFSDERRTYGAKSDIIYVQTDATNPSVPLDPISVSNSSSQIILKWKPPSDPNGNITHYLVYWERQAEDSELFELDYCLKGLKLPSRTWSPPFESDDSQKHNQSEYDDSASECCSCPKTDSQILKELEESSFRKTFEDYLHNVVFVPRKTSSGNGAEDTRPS
Insulin receptor, sequence (P15127 764-1383 limits assumed): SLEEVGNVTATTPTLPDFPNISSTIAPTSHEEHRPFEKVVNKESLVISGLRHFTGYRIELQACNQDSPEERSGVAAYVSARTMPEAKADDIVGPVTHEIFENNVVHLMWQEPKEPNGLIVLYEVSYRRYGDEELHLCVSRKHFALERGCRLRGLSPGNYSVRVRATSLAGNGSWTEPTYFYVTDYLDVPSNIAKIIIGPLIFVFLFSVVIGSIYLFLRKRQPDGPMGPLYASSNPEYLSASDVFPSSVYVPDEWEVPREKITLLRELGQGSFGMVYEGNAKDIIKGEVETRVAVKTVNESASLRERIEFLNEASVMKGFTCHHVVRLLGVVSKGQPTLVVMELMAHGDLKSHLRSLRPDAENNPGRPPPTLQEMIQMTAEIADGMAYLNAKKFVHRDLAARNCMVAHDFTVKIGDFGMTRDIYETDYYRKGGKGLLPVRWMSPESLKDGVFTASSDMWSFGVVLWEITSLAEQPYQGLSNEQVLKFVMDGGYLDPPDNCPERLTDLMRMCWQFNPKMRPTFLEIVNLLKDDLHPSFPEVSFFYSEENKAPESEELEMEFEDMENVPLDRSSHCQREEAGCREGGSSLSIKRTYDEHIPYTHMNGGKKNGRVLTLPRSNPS

CCC1(c2ccccc2)C(=O)NC(=O)NC1=O [PHENOBARBITAL]
IC50 [1]: Not Active
IC50 [2]: Not Active
IC50 (Carbonic anhydrase 2): Not Active
IC50 [3]: Not Active
IC50 [4]: Not Active
Ki [4]: Not Active
IC50 (Insulin receptor): Not Active
IC50 (Neutrophil elastase): Not Active

O=C(O)COC(=O)Cc1ccccc1Nc1c(Cl)cccc1Cl [ACECLOFENAC]
IC50 ([1]; read-out: IC50): 1290 nM
IC50 [2]: Not Active
IC50 (Carbonic anhydrase 2): Not Active
IC50 [3]: Not Active
IC50 [4]: Not Active
Ki [4]: Not Active
IC50 (Insulin receptor): Not Active
IC50 (Neutrophil elastase): Not Active
